Measured values as given in ChEMBL document CHEMBL4888484, “Replenishing the malaria drug discovery pipeline: Screening and hit evaluation of the MMV Hit Generation Library 1 (HGL1) against asexual blood stage Plasmodium falciparum ,using a nano luciferase reporter read-out” (2022).
pIC50: −log10 of the molar value.

Assays:
[1] = tested on: Plasmodium falciparum; assay: Hit confirmation in dose-response curve in NF54 nanoGlo assay, at 72h; type: functional, organism-based, Erythrocyte; design: timepoint 72 hour; settings: Plasmodium falciparum, NF54, Erythrocyte, 72 h
[2] = tested on: Plasmodium falciparum; assay: Hit confirmation in dose-response curve in NF54 pLDH assay, at 72h; type: functional, organism-based; design: timepoint 72 hour; settings: NF54, Erythrocyte
[3] = tested on: Plasmodium falciparum; assay: Hit confirmation in dose-response curve in Dd2 pLDH assay, at 72h; type: functional, organism-based; design: timepoint 72 hour; settings: Dd2, Erythrocyte
[4] = Hit confirmation in dose-response curve in HepG2 cytotoxicity assay, at 72h; type: toxicity, cell-based; design: timepoint 72 hour; settings: human, HepG2 cells
[5] = tested on: Plasmodium falciparum; assay: Hit confirmation in dose-response curve in NF54 nanoGlo assay, at 12h; type: functional, organism-based, Erythrocyte; design: timepoint 12 hour; settings: Plasmodium falciparum, NF54, Erythrocyte, 12 h

Row | SMILES | pIC50 [1] | pIC50 [2] | pIC50 [3] | pIC50 [5] | IC50 at 72 h [4] [µM]
1 | COc1ccc(CC(=N)Nc2cc3cc(OC)c(OC)cc3c(Cc3ccc(OC)c(OC)c3)n2)cc1OC | 5.65 | 5.43 | 5.70 | 5.30 | > 10
2 | O=C(N1CCCN(c2nc3ccccc3nc2-c2ccccc2)CC1)C(Cl)(Cl)Cl | 5.54 | 5.14 | 5.29 | 5.05 | > 10
3 | Cc1ccc(OCC(=O)Nc2cc(C)nn2-c2nc3c(cnn3-c3ccc(C)c(C)c3)c(=O)[nH]2)cc1 | 5.68 | 5.39 | 5.16 | < 5.00 | > 10
4 | CC(C)c1cc(=O)[nH]c(-n2nc(C3CC3)cc2NC(=O)Cc2ccc(Cl)cc2)n1 | 5.72 | 5.11 | 5.41 | < 5.00 | > 10
5 | CCC(CC)c1cc([C@H]2CN3CC[C@H]2C[C@@H]3CNS(=O)(=O)Cc2ccccc2)nc(-c2ccncc2)n1 | 5.69 | 5.36 | 5.41 | 5.41 | > 10
6 | CCN1CCN(C2CCN(c3ncc(F)c(OC)n3)CC2)CC1 | 5.59 | 5.41 | < 5.00 | < 5.00 | > 10
7 | CCOc1ccc(Nc2c3ccccc3nc3ccccc23)cc1 | 5.81 | 5.46 | 5.73 | 5.24 | > 10
8 | CCCCCn1c(NCc2cc(Cl)ccc2O)nc2ccccc21 | 5.44 | 5.06 | 5.13 | 5.17 | > 10
9 | O=C(Nc1ccc(Cl)c(Cl)c1)Nc1ccc(Cl)cc1NC(=O)Nc1ccc(Cl)c(Cl)c1 | 5.69 | 5.16 | 5.35 | 5.48 | > 10
10 | C[C@@]1(C(=O)NCc2ccccc2)Cn2nc(-c3ccccc3)cc2C(=O)N1c1ccc2c(c1)OCCO2 | 5.65 | 5.01 | 5.13 | 5.46 | > 10
11 | O=c1nc2n(nc1-c1ccccc1)C1(CCC1)Nc1ccccc1-2 | 6.12 | 5.55 | 5.73 | 5.39 | > 10
12 | COc1ccc(C(=O)C[n+]2cc(-c3ccc(OC)cc3)n3c2CCCC3)cc1 | 5.85 | 5.63 | 5.83 | < 5.00 | > 10
13 | Cc1cc(=O)c(OCC(=O)N2CCN([C@@H](c3ccccc3)c3ccc(Cl)cc3)CC2)c[nH]1 | 5.73 | 5.30 | 5.46 | < 5.00 | > 10
14 | Fc1ccccc1N1CCN(C2CCN(Cc3c[nH]c4ccccc34)CC2)CC1 | 5.74 | 5.39 | 5.49 | < 5.00 | > 10
15 | CCc1c2c(=O)n(-c3nc4ccccc4s3)[nH]c2cc(=O)n1CCCN1CCOCC1 | 5.34 | 5.02 | < 5.00 | 5.18 | > 10
16 | CC[n+]1c(/C=C/N(C)c2ccccc2)oc2ccc(-c3ccccc3)cc21 | 6.25 | 6.05 | 6.38 | 5.27 | > 10
17 | CN(Cc1ccc(-c2ccccc2)cc1)c1cc([C@H]2C[C@@H](N)C2)nc(N)n1 | 5.66 | 5.38 | 5.49 | 5.40 | > 10

Row | SMILES | pIC50 [1] | pIC50 [2] | pIC50 [3] | pIC50 [5] | IC50 at 72 h [4] [µM]
18 | COc1ccccc1Cn1cnc2c1c(=O)n(C1CCCCC1)c(=O)n2-c1ccccc1Cl | 5.85 | 5.40 | 5.50 | < 5.00 | > 10
19 | COc1ccc2[nH]c3c(c2c1)CCN(C(=O)c1ccc(C)c(C)c1)[C@@H]3c1ccccc1OC | 5.76 | 5.45 | 5.59 | 5.06 | > 10
20 | CN1CCCN(c2ccnc3ccsc23)CC1 | 5.53 | 5.42 | 5.61 | 5.42 | > 10
21 | O=C(Cc1ccc(N(Cc2cccc(F)c2)C(=O)c2cccc(F)c2)cc1)NCCN1CCCCC1 | 5.49 | 5.28 | 5.10 | < 5.00 | > 10
22 | O=C(CN1C=CCC=C1c1nc(-c2ccc(Br)cc2)cs1)c1ccccc1 | 5.58 | 5.46 | 5.45 | 5.23 | > 10
23 | CCC[N+]1(CC#C[C@@](O)(c2ccccc2)C(C)(CC)CC)CCCCC1 | 5.47 | 5.36 | 5.37 | < 5.00 | > 10
24 | COc1ccc(-n2ncc(Oc3cccc(C)c3)c(Nc3cccc(C(=O)NCc4ccc(F)cc4)c3)c2=O)cc1 | 5.45 | < 5.00 | 5.12 | 5.24 | > 10
25 | Cc1cc(OC[C@@H](O)CNC(C)(C)CC(C)(C)C)cc(C)c1Cl | 5.62 | 5.08 | 5.39 | 5.36 | 10.5
26 | COC[C@H](NCCc1cc(F)cc2c1OCOC2)C1CC1 | 6.18 | 6.05 | < 5.00 | < 5.00 | > 10
27 | Fc1cnc(OC2Cc3ccccc3C2)nc1 | 5.73 | 5.49 | < 5.00 | < 5.00 | > 10
28 | O=C1NC(=O)c2ccc3c4c(ccc1c24)C(=O)N(c1ccccc1)C3=O | 5.22 | 5.45 | 5.78 | < 5.00 | > 10
29 | COc1ccc(-n2ncc3c(N)c4c(nc32)CCCC4=O)cc1 | 5.18 | < 5.00 | < 5.00 | 5.41 | > 10
30 | Clc1ccc(C[n+]2ccc(-c3nc4ccccc4o3)cc2)c(Cl)c1 | 6.24 | 6.22 | 6.28 | < 5.00 | > 10
31 | O=C(c1cccc(C(=O)N2CCN(C(c3ccccc3)c3ccccc3)CC2)c1)N1CCN(C(c2ccccc2)c2ccccc2)CC1 | < 5.00 | < 5.00 | < 5.00 | < 5.00 | > 10
32 | O=C(Nc1[nH]c(=O)ncc1F)c1coc(-c2ccccc2)n1 | 8.23 | 7.95 | < 5.00 | < 5.00 | > 10
33 | COC(=O)c1ccccc1NC(=O)NCCn1nnc2cc(S(=O)(=O)N(C)C)ccc21 | 5.59 | < 5.00 | < 5.00 | < 5.00 | > 10

The remaining molecules from weak to strong by pIC50 [5], led by results:

Row | pIC50 [1] | pIC50 [2] | pIC50 [3] | pIC50 [5] | SMILES | IC50 at 72 h [4] [µM]
34 | 5.75 | 5.65 | 5.80 | 5.49 | CCCOc1cccc2c(NC3CCN(CCOC)CC3)ccnc12 | > 10
35 |  |  |  | 5.50 | NC(=O)C1CCN(CCC(=O)N2CCc3cc4ccc3[C@@H]2c2cccc(c2)OCCCNC(=O)c2cc(ccc2O)O4)CC1 | > 10
36 | 5.55 | 5.32 | 5.37 | 5.52 | O=C(Nc1onc2c1CCC2)c1ccc2ccccc2c1 | 4.07
37 | 5.67 | 5.66 | 5.58 | 5.54 | Cc1nnc(CNC(=O)Nc2cccc3c4c(oc23)CCCC4)o1 | > 10
38 | 5.89 | 5.84 | 5.93 | 5.55 | COc1ccc(CN(Cc2ccncc2)CC2CCN(C3CCN(C)CC3)CC2)c(F)c1 | > 10
39 | 5.77 | 5.36 | 5.39 | 5.56 | Cc1ccc(S(=O)(=O)c2c(NS(=O)(=O)c3ccc(F)cc3)n(CCc3ccccc3)c3nc4ccccc4nc23)cc1 | > 10
40 | 5.72 | < 5.00 | 5.31 | 5.57 | CCOc1ccc(-c2cc(NC(=O)c3cc(-c4cccnc4)nc4ccccc34)on2)cc1OCC | > 10
41 | 5.81 | 5.19 | < 5.00 | 5.66 | Cc1nn(-c2nc3ccccc3[nH]2)c2c1[C@@H](c1cccnc1)CC(=O)N2 | > 10
42 | 5.86 | 6.46 | 5.84 | 5.69 | N#Cc1nc2c(C#N)c(N)n(CCc3ccccc3)c2nc1C#N | > 10
43 | 5.82 | < 5.00 | 5.39 | 5.76 | COc1ccc(-c2cc(C(F)(F)F)nc(-n3nc(-c4cccc(OC)c4)c(Cl)c3-c3cccc(OC)c3)n2)cc1 | > 10
44 | 5.45 | < 5.00 | < 5.00 | 5.81 | CN(C(=O)C(C)(C)Nc1ncc(C(F)(F)F)cc1Cl)c1ccc(Cl)cc1 | > 10
45 | 5.70 | < 5.00 | < 5.00 | 5.98 | COc1ccc2c(c1)OC13CCN(C)CC1C2C(C(=O)c1ccccc1OC)C(=O)N3 (configuration not stated) | > 10
46 | 5.53 | < 5.00 | < 5.00 | 5.99 | COc1ccc(CC(=O)N2N=C(C)C[C@]2(O)c2cccnc2)cc1 | > 10
47 | 6.29 | 5.94 | 5.71 | 6.01 | c1cc(-c2nc3cc4ccccc4cc3[nH]2)nc(-c2nc3cc4ccccc4cc3[nH]2)c1 | 8.32
48 | 5.96 | 4.95 | 5.25 | 6.22 | O=C(Nc1c(S(=O)(=O)c2ccccc2)c2nc3ccccc3nc2n1CCc1ccccc1)c1ccc(Cl)cc1 | > 10
49 | 5.82 | < 5.00 | < 5.00 | 6.30 | Cn1c(N)c(S(=O)(=O)N2CCN(c3ccccc3Cl)CC2)c(=O)n(C)c1=O | > 10
